The target in one test is T1, Era (Staphylococcus aureus, UniProt Q2FY06).
T1 sequence (Q2FY06 1-299): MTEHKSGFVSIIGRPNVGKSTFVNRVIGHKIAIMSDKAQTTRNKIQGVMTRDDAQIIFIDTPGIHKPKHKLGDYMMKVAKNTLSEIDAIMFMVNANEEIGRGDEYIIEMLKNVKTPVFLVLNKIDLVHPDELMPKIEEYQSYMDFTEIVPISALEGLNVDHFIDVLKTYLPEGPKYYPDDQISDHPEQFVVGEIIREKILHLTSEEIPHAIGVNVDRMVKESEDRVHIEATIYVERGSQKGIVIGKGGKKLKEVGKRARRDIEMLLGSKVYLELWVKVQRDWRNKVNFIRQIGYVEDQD
As to the kind of experiment: DRaCALA with […]-ppGpp. Format: binding.

Test [1] addresses Era fused to the SB (small bit of luciferase) (S. aureus). As to the kind of experiment: split reporter (BiFC, NanoBiT); split luciferase (SB and LB fusions from pAP118) in S. aureus LAC*; 100 ng/ml Atet for 90 min, normalised to OD600 0.1, Nano-Glo Luciferase Assay; positive only if increased over both negative controls.

For orientation: Kd means the concentration at which binding is half-saturated. A higher Kd goes with a looser complex.

In turn, `Nc1nc2c(ncn2[C@@H]2O[C@H](COP(=O)(O)OP(=O)(O)O)[C@@H](OP(=O)(O)OP(=O)(O)O)[C@H]2O)c(=O)[nH]1` [ppGpp] came in with a Kd at Era of 3.1 ± 0.4 µM.
For “full-length CshA fused to LB (large bit of luciferase) (natural protein)”, the fold increase in luciferase activity upon co-expression in test [1] is 4 fold.

For the origin of these results see paper PMC6738653, “The (p)ppGpp-binding GTPase Era promotes rRNA processing and cold adaptation in Staphylococcus aureus” (PLoS Genetics, 2019).
